According to the supplement of paper PMC11061612:

Legend:
Assay in all cases: combination Emax (second highest fraction inhibited in the dose matrix, 72 h); higher = more inhibition; extreme values may be limits of the assay
[1] = system: ALL-PO (B-Lymphoblastic Leukemia)
Procedure, shortened: (§1)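 Cell lines in DMEM/F12 or RPMI with 10% FBS were plated in 1536-well plates, held 24 hours at 37°C, 5% CO2, then given two-drug dose matrices for 72 hours (DMSO typically 0.2%). Viability was read by CellTiter-Glo 2.0 luminescence and scaled as inhibition from 0 (vehicle wells) to 1 (blank wells). Combination Emax is the second-highest inhibition in the matrix; Bliss excess is observed combination effect minus expected EA + EB − EA·EB, EA and EB being single-agent effects.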

[2] = system: BE-13 (T-Lymphoblastic Leukemia)
Procedure, shortened: as §1

BE2-M17 (Neuroblastoma) = system: BE2-M17 (Neuroblastoma)
Procedure, shortened: as §1

BPH-1 (Non-Cancerous) = system: BPH-1 (Non-Cancerous)
Procedure, shortened: as §1

[3] = system: ESS-1 (Other Solid Carcinomas)
Procedure, shortened: as §1

EW-11 (Ewing's Sarcoma) = system: EW-11 (Ewing's Sarcoma)
Procedure, shortened: as §1

GAMG (Glioblastoma) = system: GAMG (Glioblastoma)
Procedure, shortened: as §1

[4] = system: HH (T-Cell Non-Hodgkin's Lymphoma)
Procedure, shortened: as §1

[5] = system: KMRC-20 (Kidney Carcinoma)
Procedure, shortened: as §1

[6] = system: KYAE-1 (Esophageal Adenocarcinoma)
Procedure, shortened: as §1

[7] = system: LCLC-97TM1 (Non-Small Cell Lung Carcinoma)
Procedure, shortened: as §1

[8] = system: LNZTA3WT4 (Low Grade Glioma)
Procedure, shortened: as §1

[9] = system: MHH-CALL-2 (B-Lymphoblastic Leukemia)
Procedure, shortened: as §1

MPP-89 (Mesothelioma) = system: MPP-89 (Mesothelioma)
Procedure, shortened: as §1

[10] = system: NUGC-4 (Gastric Carcinoma)
Procedure, shortened: as §1

[11] = system: OVCAR-5 (Ovarian Carcinoma)
Procedure, shortened: as §1

[12] = system: SNU-16 (Gastric Carcinoma)
Procedure, shortened: as §1

[13] = system: TGBC1TKB (Biliary Tract Carcinoma)
Procedure, shortened: as §1

[14] = system: WSU-NHL (B-Cell Non-Hodgkin's Lymphoma)
Procedure, shortened: as §1

[15] = system: YAPC (Pancreatic Carcinoma)
Procedure, shortened: as §1

SMILES	combination Emax [1]	combination Emax [2]	combination Emax (BE2-M17 (Neuroblastoma))	combination Emax (BPH-1 (Non-Cancerous))	combination Emax [3]	combination Emax (EW-11 (Ewing's Sarcoma))	combination Emax (GAMG (Glioblastoma))	combination Emax [4]	combination Emax [5]	combination Emax [6]	combination Emax [7]	combination Emax [8]	combination Emax [9]	combination Emax (MPP-89 (Mesothelioma))	combination Emax [10]	combination Emax [11]	combination Emax [12]	combination Emax [13]	combination Emax [14]	combination Emax [15]
Cn1cnc2c(F)c(Nc3ccc(Br)cc3Cl)c(C(=O)NOCCO)cc21 [Selumetinib] + CC(C)n1c(=O)n(C)c2cnc3cc(F)c(-c4ccc(OCCCN5CCCCC5)nc4)cc3c21 [AZD1390] (first compound max 10 µM, 7x7, partner max 0.3 µM)	0.301	0.179	0.508	0.487	0.246	0.103	0.151	0.198	0.131	0.144	0.528	0.226	0.256	0.0892	0.481	0.563	0.36	0.152	0.205	0.193
Cn1cnc2c(F)c(Nc3ccc(Br)cc3Cl)c(C(=O)NOCCO)cc21 [Selumetinib] + CCN(CCO)CCCOc1ccc2c(Nc3cc(CC(=O)Nc4cccc(F)c4)[nH]n3)ncnc2c1 [AZD2811] (first compound max 10 µM, 7x7, partner max 1 µM)	1	0.735	0.644	0.624	0.462	0.199	0.52	0.173	0.29	0.0661	0.647	0.226	0.888	0.204	0.472	0.507	0.561	0.211	0.642	0.212
Cn1cnc2c(F)c(Nc3ccc(Br)cc3Cl)c(C(=O)NOCCO)cc21 [Selumetinib] + C[C@@H]1COCCN1C2=NC(=NC(=C2)C3(CC3)[S@](=N)(=O)C)C4=C5C=CNC5=NC=C4 [AZD6738] (first compound max 10 µM, 7x7, partner max 10 µM)	0.96	0.784	0.83	0.503	0.953	0.592	0.469	0.175	0.441	0.0615	0.756	0.712	0.951	0.329	0.607	0.671	0.966	0.347	0.817	0.22
CC(=O)Nc1cccc(-n2c(=O)n(C3CC3)c(=O)c3c(Nc4ccc(I)cc4F)n(C)c(=O)c(C)c32)c1 [Trametinib] + Cc1nc(-c2cn3c(n2)-c2ccc(-c4cnn(C(C)(C)C(N)=O)c4)cc2OCC3)n(C(C)C)n1 [Taselisib] (first compound max 1 µM, 7x7, partner max 10 µM)	0.795	0.168	0.994	0.94	0.88	0.676	0.783	0.524	0.593	0.893	1	0.671	0.662	0.796	0.554	0.905	0.955	0.933	0.76	0.733
CC1(C)CCC(CN2CCN(c3ccc(C(=O)NS(=O)(=O)c4ccc(NCC5CCOCC5)c([N+](=O)[O-])c4)c(Oc4cnc5[nH]ccc5c4)c3)CC2)=C(c2ccc(Cl)cc2)C1 [Venetoclax] + C1CN(CCC1(C(=O)N[C@@H](CCO)C2=CC=C(C=C2)Cl)N)C3=NC=NC4=C3C=CN4 [Capivasertib] (first compound max 1 µM, 7x7, partner max 3 µM)	0.669	0.379	0.254	0.382	0.891	0.711	0.505	0.44	0.294	0.407	0.298	0.508	0.106	0.375	0.121	0.262	0.189	0.309	0.977	0.124
CC1(C)CCC(CN2CCN(c3ccc(C(=O)NS(=O)(=O)c4ccc(NCC5CCOCC5)c([N+](=O)[O-])c4)c(Oc4cnc5[nH]ccc5c4)c3)CC2)=C(c2ccc(Cl)cc2)C1 [Venetoclax] + C=CCn1c(=O)c2cnc(Nc3ccc(N4CCN(C)CC4)cc3)nc2n1-c1cccc(C(C)(C)O)n1 [AZD1775] (first compound max 1 µM, partner max 1 µM)	1	1	0.825	0.377	1	0.715	0.836	0.766	0.627	0.706	0.891	0.917	0.681	0.841	0.312	0.75	0.912	0.35	0.985	0.307
CC1(C)CCC(CN2CCN(c3ccc(C(=O)NS(=O)(=O)c4ccc(NCC5CCOCC5)c([N+](=O)[O-])c4)c(Oc4cnc5[nH]ccc5c4)c3)CC2)=C(c2ccc(Cl)cc2)C1 [Venetoclax] + CCN(CCO)CCCOc1ccc2c(Nc3cc(CC(=O)Nc4cccc(F)c4)[nH]n3)ncnc2c1 [AZD2811] (first compound max 1 µM, 7x7, partner max 1 µM)	1	0.881	0.515	0.416	0.977	0.517	0.598	0.18	0.2	0.163	0.289	0.487	0.292	0.284	0.166	0.315	0.523	0.208	0.782	0.157
CC1(C)CCC(CN2CCN(c3ccc(C(=O)NS(=O)(=O)c4ccc(NCC5CCOCC5)c([N+](=O)[O-])c4)c(Oc4cnc5[nH]ccc5c4)c3)CC2)=C(c2ccc(Cl)cc2)C1 [Venetoclax] + CN(C)CCCOc1ccc(-c2ccc3ncc4c(c3c2)n(C2CCOCC2)c(=O)n4C)cn1 [AZD0156] (first compound max 1 µM, 7x7, partner max 1 µM)	0.516	0.612	0.238	0.254	0.93	0.69	0.273	0.18	0.201	0.115	0.105	0.4	0.153	0.408	0.166	0.405	0.152	0.244	0.811	0.175
CC1(C)CCC(CN2CCN(c3ccc(C(=O)NS(=O)(=O)c4ccc(NCC5CCOCC5)c([N+](=O)[O-])c4)c(Oc4cnc5[nH]ccc5c4)c3)CC2)=C(c2ccc(Cl)cc2)C1 [Venetoclax] + COc1cc(Nc2ncc3c(n2)-c2ccc(Cl)cc2C(c2c(F)cccc2OC)=NC3)ccc1C(=O)O [Alisertib] (first compound max 1 µM, 7x7, partner max 10 µM)	1	0.918	0.901	0.745	0.957	0.649	0.662	0.222	0.654	0.128	0.497	0.472	0.733	0.566	0.166	0.335	0.955	0.403	0.985	0.142
CC1(C)CCC(CN2CCN(c3ccc(C(=O)NS(=O)(=O)c4ccc(NCC5CCOCC5)c([N+](=O)[O-])c4)c(Oc4cnc5[nH]ccc5c4)c3)CC2)=C(c2ccc(Cl)cc2)C1 [Venetoclax] + C[C@@H]1COCCN1C2=NC(=NC(=C2)C3(CC3)[S@](=N)(=O)C)C4=C5C=CNC5=NC=C4 [AZD6738] (first compound max 1 µM, 7x7, partner max 10 µM)	1	0.936	0.939	0.332	0.979	0.781	0.708	0.352	0.665	0.121	0.85	0.789	0.863	0.686	0.534	0.768	0.973	0.46	0.983	0.317
CC1(C)CCC(CN2CCN(c3ccc(C(=O)NS(=O)(=O)c4ccc(NCC5CCOCC5)c([N+](=O)[O-])c4)c(Oc4cnc5[nH]ccc5c4)c3)CC2)=C(c2ccc(Cl)cc2)C1 [Venetoclax] + C[C@@H](Nc1cc(F)cc(F)c1)c1cc(C(=O)N(C)C)cc2c(=O)cc(N3CCOCC3)oc12 [AZD8186] (first compound max 1 µM, 7x7, partner max 3 µM)	0.703	0.375	0.276	0.31	0.814	0.699	0.453	0.434	0.245	0.554	0.129	0.185	0.294	0.236	0.287	0.214	0.251	0.526	1	0.0625
CC1(C)CCC(CN2CCN(c3ccc(C(=O)NS(=O)(=O)c4ccc(NCC5CCOCC5)c([N+](=O)[O-])c4)c(Oc4cnc5[nH]ccc5c4)c3)CC2)=C(c2ccc(Cl)cc2)C1 [Venetoclax] + Cc1cc2ncnn2cc1Nc1ncc2c(n1)n(C1CCOCC1)c(=O)n2C [AZD7648] (first compound max 1 µM, 7x7, partner max 10 µM)	0.613	0.529	0.276	0.232	0.886	0.558	0.377	0.273	0.288	0.176	0.2	0.385	0.17	0.418	0.232	0.339	0.223	0.297	0.869	0.2
